Assay in all cases: inhibition of tumour cell growth, NCI panel, 48 h
Assay [1] deals with SF-268 CNS.
Assay [2] has as its system CCRF-CEM leukemia.
In assay [3] the test system is SNB-78 CNS.
In assay [4] the test system is OVCAR-4 ovarian.
The subject of assay [5] is CAKI-1 renal.
Assay [6] has as its system TK-10 renal.
The subject of assay [7] is EKVX NSCLC.
Assay [8] has as its system DMS 114 small cell lung.
Assay [9] concerns BT-549 breast.
Assay [10] deals with M14 melanoma.

Values joined by “and” are separate entries in the source; they are usually repeats but may differ in a detail not shown here. Identical values can stand only once.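 Five concentrations, 48 hours, 96-well plates. At the GI50, growth is halved. At the TGI there is no net growth.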 Bounds are passed on as bounds.

Among the data in PubChem BioAssay (NCI) are GI50 and TGI values, retold here.

Turning to `COc1cc(O)c2c(c1)C(=O)c1cc3c(c(O)c1C2=O)C(OC1OC(C)C(O)C(O)C1OC)C(OC)C(C)(O)C3=O` (configuration not stated), the GI50 is 2.56 µM in assay [1]; 3.07 µM and 13.4 µM in [2]; 1.7 µM in assay [4]; 1.99 µM and 0.671 µM in assay [5]; 4.29 µM in [6]; 2.74 µM in assay [7]. Besides, the GI50 in assay [9] is 2.07 µM; in [10], 1.69 µM. Besides, the TGI in assay [1] was 15.2 µM and 40.5 µM; in [2], > 100 µM and 74.1 µM; in [3], 16.1 µM; in assay [4], 8.04 µM and 2.64 µM; in [5] it was 6.82 µM and 4.95 µM; in assay [6], 61.4 µM. In addition, the TGI in [7] is 7.21 µM and 5.39 µM; in assay [8] it was 5.24 µM; in assay [9] it was 5.18 µM; in assay [10], 3.65 µM.
Regarding `C[n+]1ccc(-c2c3nc(c(-c4cc[n+](C)cc4)c4ccc([n-]4)c(-c4cc[n+](C)cc4)c4nc(c(-c5cc[n+](C)cc5)c5ccc2[n-]5)C=C4)C=C3)cc1.[I-].[Zn+2]`, the GI50 in [1] was 11 µM; in [2] it was 14.1 µM; in assay [3] it was 23.3 µM; in assay [4], 2.43 µM; in assay [5], 20 µM; in [6], 15.2 µM. In addition, the GI50 is 11.1 µM in assay [7], 7.11 µM in [8] and 14 µM in assay [10]. In addition, the TGI was 25.9 µM in assay [1]; 44.5 µM in assay [2]; 69.6 µM in [3]; 10.4 µM in [4]; 41.7 µM in [5]; 38 µM in assay [6]. Also, the TGI in assay [7] was 47.6 µM; in [8], 22.6 µM; in assay [10], 35.5 µM.
On to `NCCN1C(=O)C2C3c4ccccc4C(c4ccccc43)C2C1=O` (configuration not stated), for which the TGI in assay [1], in assay [2], in assay [3], in assay [4], in assay [5] and in [6] was greater than 100 µM throughout. Also, the TGI in assay [7], in assay [8] and in [10] was greater than 100 µM throughout.
Consider `COc1cc2c(cc1OC)C(=O)Cc1ccc(OC)c(OC)c1CN(C)CC2`, for which the TGI in assay [1], in assay [2], in assay [3], in assay [4], in assay [5] and in assay [6] was greater than 100 µM each time. The TGI in assay [7], in assay [8] and in assay [10] was greater than 100 µM throughout.
`OC1C2CCC1C1C3C=CC(C3)C21` (configuration not stated): the TGI in assay [1], in assay [2], in [3], in [4], in [5] and in assay [6] was greater than 100 µM in each case. Besides, the TGI in assay [7], in [8] and in [10] was greater than 100 µM throughout.
In the case of `c1ccc2c(c1)[nH]c1c2nc2ncccn21`, the TGI in assay [1], in assay [2], in [3], in assay [4], in assay [5] and in assay [6] was greater than 100 µM in each case. For the same molecule, the TGI in assay [7], in assay [8] and in assay [10] was greater than 100 µM each time.
Regarding `O=S(O)CCCSSc1ccccc1`, the TGI in [1] was greater than 100 µM; in assay [2], 93.3 µM; in assay [3], greater than 100 µM; in assay [4] it was greater than 100 µM; in assay [5], greater than 100 µM; in assay [6] it was greater than 100 µM. Further, the figures for the TGI in assay [7], in assay [8] and in [10] were 88.1 µM, 67.6 µM and greater than 100 µM, respectively.
`O=C(NCC(O)CNC(=O)C(F)(F)F)C(F)(F)F`: the TGI in assay [1], in [2], in assay [3], in assay [4], in assay [5] and in assay [6] was greater than 100 µM in each case. For the same molecule, the TGI in assay [7], in [8] and in assay [10] was greater than 100 µM throughout.
`Cc1nn(C)cc1P(=S)(c1ccccc1)c1ccccc1`: the TGI in assay [1], in assay [2], in assay [3], in assay [4], in assay [5] and in assay [6] was greater than 100 µM throughout. In addition, the TGI in [7], in [8] and in assay [10] was greater than 100 µM each time.
Regarding `CC1OC(OC2C(CO)OC(O[C@H]3CC[C@@]4(C)C(=CC[C@H]5[C@@H]6C[C@@H]7O[C@]8(CC[C@@H](C)CN8)[C@@H](C)[C@@H]7[C@@]6(C)CC[C@@H]54)C3)C(O)C2O)C(O)C(O)C1O` (some centres not stated), the TGI in [1], in assay [2], in assay [3], in [4], in assay [5] and in [6] was greater than 100 µM in each case. The TGI in assay [7], in [8] and in [10] was greater than 100 µM throughout.
For `N#C/C(=C/Sc1ccccc1)C(=O)O`, the TGI was 53.7 µM in assay [1]; greater than 100 µM in assay [2]; 59.5 µM in assay [3]; greater than 100 µM in [4]; 79.5 µM in assay [5]; greater than 100 µM in [6]. Further, the TGI is greater than 100 µM in assay [7], 35.8 µM in assay [8] and 57.2 µM in [10].
